Ki data for two compounds are collected here from BindingDB's records for doi:10.3109/14756366.2013.804072 (University of Calgary, 2014).

Targets include Carbonic anhydrase 12 (Homo sapiens, UniProt O43570); Carbonic anhydrase 13 (Homo sapiens, UniProt Q8N1Q1); Carbonic anhydrase 2 (Homo sapiens, UniProt P00918); Carbonic anhydrase 6 (Homo sapiens, UniProt P23280); Carbonic anhydrase 3 (Homo sapiens, UniProt P07451); Carbonic anhydrase 1 (Homo sapiens, UniProt P00915); Carbonic anhydrase 14 (Homo sapiens, UniProt Q9ULX7); Carbonic anhydrase 4 (Homo sapiens, UniProt P22748).

Holding throughout (experiment): CA Inhibition Assay
Settings in all cases: pH 7.5; 25 °C

Test [1] concerns the target Carbonic anhydrase 5B, mitochondrial (Homo sapiens, UniProt Q9Y2D0).
Experimental: (§1) An Applied Photophysics stopped-flow instrument has been used for assaying the CA catalysed CO2 hydration activity. […] The CO2 concentrations ranged from 1.7 to 17 mM for the determination of the kinetic parameters and inhibition constants. […] The uncatalyzed rates were determined in the same manner and subtracted from the total observed rates. Stock solutions of inhibitor (0.1 mM) were prepared in distilled deionized water and dilutions up to 0.01nM were done thereafter with distilled-deionized water.
The target in test [2] is Carbonic anhydrase 5A, mitochondrial (Homo sapiens, UniProt P35218).
Chain of Carbonic anhydrase 5A, mitochondrial (P35218 whole entry): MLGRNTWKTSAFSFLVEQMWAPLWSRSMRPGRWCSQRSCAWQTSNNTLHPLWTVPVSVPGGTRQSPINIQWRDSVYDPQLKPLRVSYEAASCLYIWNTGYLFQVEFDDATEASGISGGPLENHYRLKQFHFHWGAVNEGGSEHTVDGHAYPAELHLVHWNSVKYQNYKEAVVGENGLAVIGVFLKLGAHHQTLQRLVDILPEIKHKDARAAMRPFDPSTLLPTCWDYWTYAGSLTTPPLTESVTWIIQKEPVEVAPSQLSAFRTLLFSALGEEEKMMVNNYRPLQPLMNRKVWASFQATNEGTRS
Experimental: as §1

Chain of Carbonic anhydrase 14 (Q9ULX7 whole entry): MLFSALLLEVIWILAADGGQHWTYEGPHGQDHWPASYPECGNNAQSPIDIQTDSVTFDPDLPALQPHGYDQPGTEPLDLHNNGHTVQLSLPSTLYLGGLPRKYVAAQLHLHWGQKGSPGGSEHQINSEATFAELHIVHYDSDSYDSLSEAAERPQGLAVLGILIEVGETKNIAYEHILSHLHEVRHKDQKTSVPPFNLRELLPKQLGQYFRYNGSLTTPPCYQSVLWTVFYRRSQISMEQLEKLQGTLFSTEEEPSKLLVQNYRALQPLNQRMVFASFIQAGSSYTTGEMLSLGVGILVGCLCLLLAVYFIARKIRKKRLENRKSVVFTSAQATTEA
Chain of Carbonic anhydrase 13 (Q8N1Q1 whole entry): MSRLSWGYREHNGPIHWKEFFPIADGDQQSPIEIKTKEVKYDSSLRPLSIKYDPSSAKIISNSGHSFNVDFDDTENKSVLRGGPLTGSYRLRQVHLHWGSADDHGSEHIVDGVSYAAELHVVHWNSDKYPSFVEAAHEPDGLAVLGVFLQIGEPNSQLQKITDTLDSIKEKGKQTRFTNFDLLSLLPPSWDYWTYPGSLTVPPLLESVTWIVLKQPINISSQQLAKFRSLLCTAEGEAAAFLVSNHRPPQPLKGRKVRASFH
Chain of Carbonic anhydrase 5B, mitochondrial (Q9Y2D0 whole entry): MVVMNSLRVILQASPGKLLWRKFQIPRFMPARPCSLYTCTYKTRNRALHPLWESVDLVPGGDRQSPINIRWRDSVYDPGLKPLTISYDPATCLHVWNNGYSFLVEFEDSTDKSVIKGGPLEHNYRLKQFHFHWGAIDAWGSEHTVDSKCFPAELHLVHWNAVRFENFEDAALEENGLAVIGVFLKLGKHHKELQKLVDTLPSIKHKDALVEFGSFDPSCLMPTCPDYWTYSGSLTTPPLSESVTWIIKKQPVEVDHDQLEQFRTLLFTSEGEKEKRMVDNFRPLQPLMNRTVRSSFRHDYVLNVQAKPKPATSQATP
Chain of Carbonic anhydrase 12 (O43570 whole entry): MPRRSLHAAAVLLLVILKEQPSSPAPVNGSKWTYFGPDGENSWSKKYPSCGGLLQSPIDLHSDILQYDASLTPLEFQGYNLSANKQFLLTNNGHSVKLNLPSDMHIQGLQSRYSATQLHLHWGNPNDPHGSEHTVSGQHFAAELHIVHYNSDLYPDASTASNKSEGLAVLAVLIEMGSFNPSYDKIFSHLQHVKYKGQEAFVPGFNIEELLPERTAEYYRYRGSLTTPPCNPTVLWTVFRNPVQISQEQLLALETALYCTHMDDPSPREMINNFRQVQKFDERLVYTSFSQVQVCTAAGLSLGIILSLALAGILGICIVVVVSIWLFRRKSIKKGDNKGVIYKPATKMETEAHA
Chain of Carbonic anhydrase 6 (P23280 whole entry): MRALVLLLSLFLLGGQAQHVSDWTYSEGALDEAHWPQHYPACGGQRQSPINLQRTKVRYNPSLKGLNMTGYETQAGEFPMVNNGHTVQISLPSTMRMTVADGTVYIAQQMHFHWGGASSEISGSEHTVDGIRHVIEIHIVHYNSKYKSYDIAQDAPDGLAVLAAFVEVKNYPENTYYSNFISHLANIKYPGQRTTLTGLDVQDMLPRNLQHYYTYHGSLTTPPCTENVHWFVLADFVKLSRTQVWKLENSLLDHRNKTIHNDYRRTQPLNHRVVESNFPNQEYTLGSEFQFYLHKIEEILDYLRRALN
Chain of Carbonic anhydrase 4 (P22748 whole entry): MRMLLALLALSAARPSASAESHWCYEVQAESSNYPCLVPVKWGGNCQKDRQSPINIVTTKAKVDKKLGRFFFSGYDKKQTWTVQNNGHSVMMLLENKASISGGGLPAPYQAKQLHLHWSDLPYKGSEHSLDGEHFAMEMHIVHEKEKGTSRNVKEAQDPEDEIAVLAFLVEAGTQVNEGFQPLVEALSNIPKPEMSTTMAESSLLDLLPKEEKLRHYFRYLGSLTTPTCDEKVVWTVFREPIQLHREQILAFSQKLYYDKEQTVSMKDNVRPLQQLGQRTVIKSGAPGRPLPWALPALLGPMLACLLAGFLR
Chain of Carbonic anhydrase 3 (P07451 whole entry): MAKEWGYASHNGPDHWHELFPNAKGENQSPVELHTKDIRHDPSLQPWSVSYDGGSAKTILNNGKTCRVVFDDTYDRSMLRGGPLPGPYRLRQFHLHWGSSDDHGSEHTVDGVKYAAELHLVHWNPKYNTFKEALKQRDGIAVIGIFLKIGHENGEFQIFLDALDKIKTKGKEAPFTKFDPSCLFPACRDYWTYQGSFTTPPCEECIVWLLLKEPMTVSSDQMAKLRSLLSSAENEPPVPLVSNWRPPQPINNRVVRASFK
Chain of Carbonic anhydrase 1 (P00915 whole entry): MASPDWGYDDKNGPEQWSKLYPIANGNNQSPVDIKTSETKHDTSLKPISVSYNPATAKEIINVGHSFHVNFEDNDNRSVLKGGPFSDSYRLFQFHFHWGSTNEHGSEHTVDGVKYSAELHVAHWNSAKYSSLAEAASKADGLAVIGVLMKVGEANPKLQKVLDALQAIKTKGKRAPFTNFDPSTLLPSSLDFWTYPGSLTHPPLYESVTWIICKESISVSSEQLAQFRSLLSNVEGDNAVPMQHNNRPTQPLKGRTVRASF
Experimental for Carbonic anhydrase 12: as §1
Experimental for Carbonic anhydrase 13: as §1
Experimental for Carbonic anhydrase 14: as §1
Experimental for Carbonic anhydrase 2: as §1
Experimental for Carbonic anhydrase 3: as §1
Experimental for Carbonic anhydrase 4: as §1
Experimental for Carbonic anhydrase 6: as §1

With `CC1(C)[C@@H](O)C[C@H]2[C@](C)(O)[C@@H]3CCC4[C@@H](O)C3(C[C@@H](O)[C@@]21O)C[C@@]4(C)O` (stereo partly specified) [Grayanotoxin III (GTX3)], the inhibition constant Ki on Carbonic anhydrase 12 worked out at 2150 nM; on Carbonic anhydrase 13 it was 690 nM; at Carbonic anhydrase 2, 6130 nM; in [1] it was 740 nM; at Carbonic anhydrase 6, 860 nM; on Carbonic anhydrase 3, 760 nM. The inhibition constant (Ki) was 8010 nM at Carbonic anhydrase 1, 1470 nM at Carbonic anhydrase 14, 510 nM on Carbonic anhydrase 4 and 1140 nM in test [2].
`NS(=O)(=O)c1cc(Cl)c(Cl)c(S(N)(=O)=O)c1` [Dichlorophenamide, DCP] displayed a Ki on Carbonic anhydrase 14 of 340 nM.

Usually Ki stands for a dissociation constant, usually derived from enzyme kinetics or from competition with a known ligand. The low end stands for tighter binding, the high end for weaker binding.
